Molecules are shown by their SMILES. Like-named read-outs stand apart in the source and are kept apart here. Where only a bound is given, the exact number is not on record here.

The record followed here is patent US20120321590A1, “BRIDGED POLYCYCLIC COMPOUNDS” (priority 2011, published 2012).

What all share (format): cell-based, HCV
The subject of experiment [1] is genotype 1b (Con1) dicistronic subgenomic replicon. In words: Transient replicon assay, genotype 1b. Conditions: Huh7-Lunet cells transfected with replicon RNA, cultured 4 days, luciferase activity. As for the experimental part: (§1) The transient replicon assay utilizes the genotype 1b (Con1) dicistronic subgenomic replicon. Genotype 1a activity was determined using a chimeric replicon containing the genotype 1b sequence for NS3 through NS5A nonstructural proteins and genotype 1a (H77) sequence for the NS5B region.
(§2) The RNA transcripts were generated using the Megascript T7 kit (Applied Biosystems, Foster City, Calif.). Exponentially growing Huh7-Lunet cells were mixed with 4 μg of replicon RNA and plated into a 96-well plate Gene Pulser MXcell Electroporation System (Bio-Rad, Hercules, Calif.). Electroporation was immediately performed at 250 V and 750 μF capacitance with a single exponential waveform pulse. Transfected cells were transferred to Dulbecco modified Eagle medium in the presence of 10% FBS and plated into 96-well plates with 7,500 cells per well. Compounds at various concentrations were added to the cells after 2 hours and were cultured for 4 days. The cells were lysed with the Bright-Glo Reagent (Promega, Madison, Wis.) and luciferase activity was measured with a luminometer (Wallac 1420 Multilabel HTS Counter Victor 2). The background control was replicon cells treated with 100 nM BILN-2061, an inhibitor of the HCV protease. Dose responses were performed in triplicate and the values were averaged. All experiments were repeated at least three times to verify the reproducibility.
(§3) The EC50 values were determined using a standard four-parameter dose response equation.
(In antiviral work, replicon cells carry a viral genome segment that copies itself.)

The nature of experiment [2]: Transient replicon assay, genotype 1a chimeric replicon. To be noted: Hepatitis C virus, genotype 1a / genotype 1b, Huh-7, 96 h, read-out: EC50 1a, Huh7-Lunet cells transfected with chimeric replicon RNA, cultured 4 days, luciferase activity. The method, then: as §1, §2, §3
Experiment [3] deals with chimeric replicon containing the genotype 1b sequence for NS3 through NS5A and genotype 1a (H77) sequence for the NS5B region. Described as above. The method, then: as §1, §2, §3

One may read the EC50 as the midpoint of the concentration-response curve. On to `CS(=O)(=O)Nc1ccc2c(c1)S(=O)(=O)N=C(C1=C(O)[C@@H]3C4C5C6CC7C4C7C(C65)[C@@H]3N(Cc3ccc(F)cc3)C1=O)N2` (racemic) [Example 1, rac-N-{3-[(4S,9R)-5-[(4-Fluorophenyl)methyl]-8-hydroxy-6-oxo-5-azahexacyclo[8.5.0.0^2,15.0^3,12.0^4,9.0^11,13]pentadec-7-en-7-yl]-1,1-dioxo-4H-1λ^6,2,4-benzothiadiazin-7-yl}methanesulfonamide], for which the concentration giving a half-maximal response (EC50) in experiment [1] (Hepatitis C virus, Huh-7, 96 h) was found to be 2 nM; in experiment [2] it was 12 nM.
As to `CS(=O)(=O)NCc1csc2c1S(=O)(=O)N=C(C1=C(O)C3C4C5C6C4C4C6C5C4C3N(Cc3ccc(F)cc3)C1=O)N2` (racemic) [Example 15, rac-N-({3-[(1R,10S)-11-[(4-fluorophenyl)methyl]-14-hydroxy-12-oxo-11-azahexacyclo[8.4.0.0^2,5.0^3,8.0^4,7.0^6,9]tetradec-13-en-13-yl]-1,1-dioxo-4H-1λ^6,5,2,4-thieno[2,3-e][1λ^6,2,4]thiadiazin-7-yl}methyl)methanesulfonamide], in experiment [1] (Hepatitis C virus, Huh-7, 96 h), a half-maximal effect (EC50) was put at 13 nM.
`CS(=O)(=O)Nc1ccc2c(c1)S(=O)(=O)N=C(C1=C(O)[C@@H]3C4C5CC6C4C6C5[C@@H]3N(Cc3ccc(F)cc3)C1=O)N2` (mixture of isomers) [Example 8, rac-N-{3-[(1R,9S)-10-[(4-Fluorophenyl)methyl]-13-hydroxy-11-oxo-10-azapentacyclo[7.4.0.0^2,7.0^3,5.0^4,8]tridec-12-en-12-yl]-1,1-dioxo-4H-1λ^6,2,4-benzothiadiazin-7-yl}methanesulfonamide]: the EC50 in experiment [1] came to 4 nM; in experiment [3] (read-out: EC50 1a; Huh7-Lunet cells transfected with chimeric replicon RNA, cultured 4 days, luciferase activity), 336 nM.
Take `CS(=O)(=O)Nc1ccc2c(c1)S(=O)(=O)N=C(c1c(O)c3cccn3n(Cc3ccc(F)cc3)c1=O)N2` [Example 21, reference compound]: the EC50 came out at 13 nM in experiment [1] (Hepatitis C virus, Huh-7, 96 h) and 400 nM in experiment [2].
Take `CS(=O)(=O)Nc1ccc2c(c1)S(=O)(=O)N=C(C1=C(O)C3C4C5C6C4C4C6C5C4C3N(Cc3ccc(F)cc3)C1=O)N2` (racemic) [Example 14, rac-N-{3-[(1R,10S)-11-[(4-fluorophenyl)methyl]-14-hydroxy-12-oxo-11-azahexacyclo[8.4.0.0^2,5.0^3,8.0^4,7.0^6,9]tetradec-13-en-13-yl]-1,1-dioxo-4H-1λ^6,2,4-benzothiadiazin-7-yl}methanesulfonamide]: the EC50 in experiment [1] (Hepatitis C virus, Huh-7, 96 h) stood at 2 nM; in experiment [2], 43 nM.
As to `CS(=O)(=O)NCc1csc2c1S(=O)(=O)N=C(C1=C(O)[C@@H]3C4C5C6CC7C4C7C(C65)[C@@H]3N(Cc3ccc(F)cc3)C1=O)N2` (racemic) [Example 4, rac-N-({3-[(4S,9R)-5-[(4-Fluorophenyl)methyl]-8-hydroxy-6-oxo-5-azahexacyclo[8.5.0.0^2,15.0^3,12.0^4,9.0^11,13]pentadec-7-en-7-yl]-1,1-dioxo-4H-1λ^6,5,2,4-thieno[2,3-e][1λ^6,2,4]thiadiazin-7-yl}methyl)methanesulfonamide], the EC50 came to 1 nM in experiment [1] and 42 nM in experiment [3] (Huh7-Lunet cells transfected with chimeric replicon RNA, cultured 4 days, luciferase activity; read-out: EC50 1a).
With `CS(=O)(=O)NCc1csc2c1S(=O)(=O)N=C(C1=C(O)C3C4C5C6C7C4C7C(C56)C3N(Cc3ccc(F)cc3)C1=O)N2` (racemic) [Example 13, rac-N-({3-[(1R,10S)-11-[(4-Fluorophenyl)methyl]-14-hydroxy-12-oxo-11-azahexacyclo[8.4.0.0^2,7.0^3,5.0^4,9.0^6,8]tetradec-13-en-13-yl]-1,1-dioxo-4H-1λ^6,5,2,4-thieno[2,3-e][1λ^6,2,4]thiadiazin-7-yl}methyl)methanesulfonamide], the concentration giving a half-maximal response (EC50) is 2 nM in experiment [1] (Hepatitis C virus, Huh-7, 96 h) and 36 nM in experiment [2].
As to `CS(=O)(=O)Nc1ccc2c(c1)S(=O)(=O)N=C(C1=C(O)[C@@H]3CCC[C@@H]3N(Cc3ccc(F)cc3)C1=O)N2` [Example 17, reference compound], the EC50 in experiment [1] (Hepatitis C virus, Huh-7, 96 h) was 18 nM; in experiment [2], 550 nM.
`CS(=O)(=O)Nc1ccc2c(c1)S(=O)(=O)N=C(C1=C(O)[C@@H]3C4C5C6CC7C4C7C(C65)[C@@H]3N(Cc3ccc(F)cc3)C1=O)N2` [Example 2, N-{3-[(4S,9R)-5-[(4-Fluorophenyl)methyl]-8-hydroxy-6-oxo-5-azahexacyclo[8.5.0.0^2,15.0^3,12.0^4,9.0^11,13]pentadec-7-en-7-yl]-1,1-dioxo-4H-1λ^6,2,4-benzothiadiazin-7-yl}methanesulfonamide]: the EC50 in experiment [1] (Hepatitis C virus, Huh-7, 96 h) was found to be 1 nM; in experiment [2], 8 nM.
As for `CS(=O)(=O)Nc1ccc2c(c1)S(=O)(=O)N=C(C1=C(O)[C@H]3C4C5C6CC7C(C74)C(C65)[C@H]3N(Cc3ccc(F)cc3)C1=O)N2` [Example 3, N-{3-[(4R,9S)-5-[(4-Fluorophenyl)methyl]-8-hydroxy-6-oxo-5-azahexacyclo[8.5.0.0^2,15.0^3,12.0^4,9.0^11,13]pentadec-7-en-7-yl]-1,1-dioxo-4H-1λ^6,2,4-benzothiadiazin-7-yl}methanesulfonamide], the EC50 in experiment [1] (Hepatitis C virus, Huh-7, 96 h) was above 330 nM; in experiment [2], above 330 nM.
In the case of `CS(=O)(=O)NCc1csc2c1S(=O)(=O)N=C(C1=C(O)[C@@H]3C4CC5CC(C4)CC(C5)[C@@H]3N(Cc3ccc(F)cc3)C1=O)N2` (racemic) [Example 6, rac-N-({3-[(2S,7R)-3-[(4-Fluorophenyl)methyl]-6-hydroxy-4-oxo-3-azatetracyclo[8.3.1.1^8,12.0^2,7]pentadec-5-en-5-yl]-1,1-dioxo-4H-1λ^6,5,2,4-thieno[2,3-e][1λ^6,2,4]thiadiazin-7-yl}methyl)methanesulfonamide], the EC50 in experiment [1] (Hepatitis C virus, Huh-7, 96 h) was found to be 42 nM; in experiment [2], 696 nM.
In the case of `CS(=O)(=O)Nc1ccc2c(c1)S(=O)(=O)N=C(C1=C(O)[C@H]3C4C5C6C7C(C74)C(C65)[C@H]3N(Cc3ccc(F)cc3)C1=O)N2` (stereo partly shown) [Example 12], the EC50 in experiment [1] (Hepatitis C virus, Huh-7, 96 h) was above 330 nM; in experiment [2] it was above 330 nM.
Regarding `CS(=O)(=O)Nc1ccc2c(c1)S(=O)(=O)N=C(C1=C(O)[C@@H]3[C@H]4CC[C@H](C4)[C@@H]3N(Cc3ccc(F)cc3)C1=O)N2` [Example 18, reference compound], the EC50 worked out at 2 nM in experiment [1] (Hepatitis C virus, Huh-7, 96 h) and 45 nM in experiment [2].
On to `CS(=O)(=O)Nc1ccc2c(c1)S(=O)(=O)N=C(C1=C(O)[C@@H]3C4C5C6C7C4C7C(C65)[C@@H]3N(Cc3ccc(F)cc3)C1=O)N2` (stereo partly drawn) [Example 11, N-{3-[(1R,10S)-11-[(4-Fluorophenyl)methyl]-14-hydroxy-12-oxo-11-azahexacyclo[8.4.0.0^2,7.0^3,5.0^4,9.0^6,8]tetradec-13-en-13-yl]-1,1-dioxo-4H-1λ^6,2,4-benzothiadiazin-7-yl}methanesulfonamide], for which the EC50 was 0.5 nM in experiment [1] (Hepatitis C virus, Huh-7, 96 h) and 4 nM in experiment [2].
Taken in the same sequence, the figures for `CS(=O)(=O)Nc1ccc2c(c1)S(=O)(=O)N=C(C1=C(O)C3C4C5C6C7C4C7C(C56)C3N(Cc3ccc(F)cc3)C1=O)N2` (racemic) [Example 10, rac-N-{3-[(1R,10S)-11-[(4-Fluorophenyl)methyl]-14-hydroxy-12-oxo-11-azahexacyclo[8.4.0.0^2,70.0^3,5.0^4,9.0^6,8]tetradec-13-en-13-yl]-1,1-dioxo-4H-1λ^6,2,4-benzothiadiazin-7-yl}methanesulfonamide] were 1 nM and 8 nM.
With `CS(=O)(=O)NCc1csc2c1S(=O)(=O)N=C(C1=C(O)[C@@H]3[C@H]4CC[C@H](C4)[C@@H]3N(Cc3ccc(F)cc3)C1=O)N2` [Example 19, reference compound], the EC50 in experiment [1] (Hepatitis C virus, Huh-7, 96 h) was 2 nM; in experiment [2] it was 45 nM.
The matching figures for `CS(=O)(=O)Nc1ccc2c(c1)S(=O)(=O)N=C(C1=C(O)[C@@H]3C4CC5CC(C4)CC(C5)[C@@H]3N(Cc3ccc(F)cc3)C1=O)N2` (racemic) [Example 5, rac-N-{3-[(2S,7R)-3-[(4-Fluorophenyl)methyl]-6-hydroxy-4-oxo-3-azatetracyclo[8.3.1.1^8,12.0^2,7]pentadec-5-en-5-yl]-1,1-dioxo-4H-1λ^6,2,4-benzothiadiazin-7-yl}methanesulfonamide]: 11 nM and 193 nM.
Taken in the same sequence, the figures for `CS(=O)(=O)Nc1ccc2c(c1)S(=O)(=O)N=C(C1=C(O)[C@@H]3C4CCC(CC4)[C@@H]3N(Cc3ccc(F)cc3)C1=O)N2` [Example 20, reference compound] were 0.6 nM and 12 nM.
As for `CS(=O)(=O)NCc1csc2c1S(=O)(=O)N=C(C1=C(O)[C@@H]3C4C5CC6C4C6C5[C@@H]3N(Cc3ccc(F)cc3)C1=O)N2` (mixture of isomers) [Example 9, rac-N-({3-[(1R,9S)-10-[(4-Fluorophenyl)methyl]-13-hydroxy-11-oxo-10-azapentacyclo[7.4.0.0^2,7.0^3,5.0^4,8]tridec-12-en-12-yl]-1,1-dioxo-4H-1λ^6,5,2,4-thieno[2,3-e][1λ^6,2,4]thiadiazin-7-yl}methyl)methanesulfonamide], the EC50 stood at 5 nM in experiment [1] (Hepatitis C virus, Huh-7, 96 h) and 171 nM in experiment [2].
